# Where “and” joins values, the source holds several entries; their conditions need not be identical. Equal values may be shown once. Read-outs that look alike come from different tables or passages of the source.
# Columns and labels:
# ASFV Ba71V strain [1] = assay type: cell-based, African swine fever virus
# ASFV Ba71V strain [2] = system: ASFV Ba71V strain
# ASFV Ba71V strain [3] = assay: microbe, parasite or virus in culture; conditions: African swine fever virus, Vero, 72 h, read-out: inhibition of ASFV-induced CPE
# ASFV = assay type: cell-based, African swine fever virus
# in vitro = conditions: African green monkey
# ASFV Ba71V strain [4] = assay: microbe, parasite or virus in culture; assay type: cell-based, African swine fever virus
# ASFV Ba71V strain [5] = assay: microbe, parasite or virus in culture; assay type: cell-based, African swine fever virus; remark: listed apart in the source
# ASFV Ba71V strain [6] = assay type: cell-based, African swine fever virus; remark: listed apart in the source
# ASFV Ba71V [7] = assay type: cell-based, African swine fever virus
# ASFV Ba71V [8] = assay type: cell-based, African swine fever virus; remark: listed apart in the source
# ASFV Ba71V strain [9] = assay: microbe, parasite or virus in culture; assay type: cell-based, African swine fever virus; remark: listed apart in the source
# ASFV Ba71V [10] = assay type: cell-based, African swine fever virus; remark: listed apart in the source
# ASFV protein (pA104R) = assay type: cell-based, African swine fever virus
# ASFV Ba71V [11] = assay type: cell-based, African swine fever virus; remark: listed apart in the source
# ASFV Arm/07 isolate [12] = assay type: cell-based, African swine fever virus
# ASFV Arm/07 isolate [13] = assay type: cell-based, African swine fever virus; remark: listed apart in the source
# ASFV Arm/07 isolate [14] = assay type: cell-based, African swine fever virus; remark: listed apart in the source
# ASFV Arm/07 isolate [15] = assay type: cell-based, African swine fever virus; remark: listed apart in the source
# [16] = system: autophagic vacuoles in Vero cells; assay type: cell-based, African green monkey
# [17] = in vivo; cited from earlier work
structure (smiles),measurement,setting,value
"O=c1cc(-c2ccccc2)oc2c1ccc1ccccc12 [7,8-benzoflavone]",ASFV yield after virucidal pre-incubation,ASFV Ba71V strain [1],4.64±0.09 log TCID50/ml
same,cell monolayer damage upon treatment,ASFV Ba71V strain [2],no apparent cell monolayer damage
same,inhibition at 10 µg/mL,ASFV Ba71V strain [3],> 40%
"Oc1c2ccccc2c2c3c(cccc13)N=N2 [SP600125, reference compound]",effect of the inhibitor alone on ASFV infection,ASFV,only a slight effect on ASFV infection
COc1ccc(-c2coc3cc(O)ccc3c2=O)cc1O [calycosin],cell monolayer damage upon treatment,ASFV Ba71V strain [2],no apparent cell monolayer damage
same,inhibition at 20 µg/mL,ASFV Ba71V strain [3],> 40%
COc1ccc(-c2cc(=O)c3c(O)cc(O[C@@H]4O[C@H](CO[C@@H]5O[C@@H](C)[C@H](O)[C@@H](O)[C@H]5O)[C@@H](O)[C@H](O)[C@H]4O)cc3o2)cc1O [diosmin],cell monolayer damage upon treatment,ASFV Ba71V strain [2],no apparent cell monolayer damage
same,CC50,in vitro,33.1 µg/mL and 54.4 µM
same,inhibition at 10 µg/mL,ASFV Ba71V strain [3],> 40%
COc1ccc(-c2cc(=O)c3c(OC)cc(OC)c(OC)c3o2)cc1OC [isosinensetin],cell monolayer damage upon treatment,ASFV Ba71V strain [2],no apparent cell monolayer damage
same,CC50,in vitro,24.8 µg/mL and 66.6 µM
same,viability,in vitro,58.5%
same,inhibition at 20 µg/mL,ASFV Ba71V strain [3],> 40%
"O=c1c(O)c(-c2ccc(O)cc2)oc2cc(O)cc(O)c12 [kaempferol, 3,5,7-trihydroxy-2-(4-hydroxyphenyl)-4H-chromen-4-one]",viral yield,ASFV Ba71V strain [4],3.98±0.19 log TCID50/ml
same,inhibition at 20 µg/mL,"ASFV Ba71V strain [4]; African swine fever virus, Vero, 24 h, read-out: inhibition of ASFV infection",> 92%
same,virucidal effect,ASFV Ba71V strain [1],no virucidal effects
same,"antiviral effect, log decrease of ASFV titer",ASFV Ba71V strain [5],1.26 log
same,IC50,"ASFV Ba71V strain [5]; African swine fever virus, Vero",2.2 µg/mL and 7.7 µM
same,"inhibition, log decrease of ASFV titer",ASFV Ba71V strain [6],1.21 log
same,viral titers as the interval between infection and removal increased,ASFV Ba71V [7],gradual declines in viral titers
same,inhibitory effect on ASFV infection,ASFV Ba71V [8],no significant inhibitory effect
same,suppression of viral infection,ASFV Ba71V [8],more than 90%
same,viral titer reduction,ASFV Ba71V [8],1.25 log and 1.1 log
same,inhibition of the ASFV yield,ASFV Ba71V strain [9],more than 60%
same,"viral titer, attachment experiment",ASFV Ba71V strain [9],3.97±0.25 log TCID50/ml
same,"virus titer, internalization experiment",ASFV Ba71V strain [9],3.63±0.11 log TCID50/ml
same,inhibition at 20 µg/mL,"ASFV Ba71V strain [9]; African swine fever virus, Vero, read-out: inhibition of the ASFV yield, attachment experiment",~60%
same,plaque numbers (virus spread),ASFV Ba71V [10],significant reduction in plaque numbers in a dose-dependent manner
same,viral protein synthesis (late protein pA104R),ASFV protein (pA104R),viral protein synthesis was reduced
same,decrease of viral DNA in viral factories vs untreated control,ASFV Ba71V [11],31%
same,anti-ASFV activity,ASFV Arm/07 isolate [12],Anti-ASFV activity was observed
same,viral titer,ASFV Arm/07 isolate [12],3.4±0.14 log HADU50/ml
same,"inhibition, log decrease of titer",ASFV Arm/07 isolate [13],about 2 log
same,effect on ASFV entry,ASFV Arm/07 isolate [14],could hinder the ASFV attachment and internalization processes
same,decrease in the amount of viral DNA in ASFV factories,ASFV Arm/07 isolate [15],39%
same,formation of autophagic vacuoles,[16],induced the formation of autophagic vacuoles
same,antiviral activity in the presence of autophagy inhibitor SP600125,ASFV,partially abrogated
same,cell monolayer damage upon treatment,ASFV Ba71V strain [2],no apparent cell monolayer damage
same,cytotoxicity for porcine cells,porcine macrophages,not cytotoxic
same,human plasma concentration,[17],around 58 nm
same,inhibition at 20 µg/mL,ASFV Ba71V strain [3],> 40%
COc1c2occc2c(OC)c2c(=O)cc(C)oc12 [khellin],cell monolayer damage upon treatment,ASFV Ba71V strain [2],no apparent cell monolayer damage
same,inhibition at 10 µg/mL,ASFV Ba71V strain [3],> 40%
Oc1ccc2c(c1)OC[C@H]1c3cc4c(cc3O[C@@H]21)OCO4 [maackiain],cell monolayer damage upon treatment,ASFV Ba71V strain [2],no apparent cell monolayer damage
same,inhibition at 20 µg/mL,ASFV Ba71V strain [3],> 40%
COc1cc(O)c2c(c1)O[C@H](c1ccc(O)cc1)CC2=O [sakuranetin],cell monolayer damage upon treatment,ASFV Ba71V strain [2],no apparent cell monolayer damage
same,inhibition at 20 µg/mL,ASFV Ba71V strain [3],> 40%
COc1ccc(-c2cc(=O)c3c(OC)c(OC)c(OC)cc3o2)cc1OC [sinensetin],cell monolayer damage upon treatment,ASFV Ba71V strain [2],no apparent cell monolayer damage
same,CC50,in vitro,150 µg/mL and 404 µM
same,inhibition at 20 µg/mL,ASFV Ba71V strain [3],> 40%

# Source: publication PMC8567988 (Frontiers in Microbiology, 2021)
